Patent publication US11702422B2, “Imidazopyridazines as modulators of IL-17” (Janssen Pharmaceutica NV, priority 2020, dated 2023)

Assays:
[1] = test system: IL-17A-induced G-CSF production in human normal keratinocyte (NHK); assay: NHK Assay: IL-17A-induced G-CSF production in human normal keratinocytes; format: cell-based; conditions: adult normal human keratinocytes, IL-17A 5 ng/mL, 24 h, simple average if tested more than once
Method in brief: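 Inhibition of IL-17A-driven G-CSF release is measured in adult keratinocytes stimulated for 24 h at 37° C with 5 ng/mL human IL-17A that had been pre-incubated with compound for 1 h. IC50 comes from HTRF G-CSF levels; cell viability is checked in parallel by luminescent ATP assay.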

[2] = target: IL-17A(FLAG-Tagged): IL-17RA(His-Tagged) (Homo sapiens, UniProt Q16552, K93Q); assay: IL-17A(FLAG-Tagged): IL-17RA(His-Tagged) Binding Disruption Eu-HTRF Assay; conditions: IL-17A/IL-17RA binding disruption, simple average if tested more than once
Method in brief: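 IC50 comes from a one-site competition fit of the HTRF 665/620 nm ratio. Compound dilutions (2-fold, 22 points) were held 1 h rt with FLAG-tagged IL-17A dimer, then His-tagged IL-17RA plus Eu-cryptate anti-FLAG and D2 anti-His antibodies were added for 2 h rt.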

Chain of UniProt Q16552 (Q16552 with tags, fused parts or gaps K93Q): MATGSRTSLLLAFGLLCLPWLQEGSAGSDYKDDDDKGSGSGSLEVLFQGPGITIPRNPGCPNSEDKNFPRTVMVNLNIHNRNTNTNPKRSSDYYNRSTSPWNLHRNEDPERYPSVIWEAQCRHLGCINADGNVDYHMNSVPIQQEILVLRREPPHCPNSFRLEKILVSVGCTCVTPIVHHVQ

SMILES	IC50 [1]	IC50 [2]	IC50 ([1]; Homo sapiens, Keratinocyte)
[2H]C([2H])([2H])C([2H])([2H])n1nccc1C(=O)N[C@H](c1cn2ncc(C(COC)NC(=O)CC3CC(F)(F)C3)cc2n1)C1CCC(F)(F)CC1 (single isomer, unassigned) [Example 522, N—((S)-(7-((S*)-1-(2-(3,3-Difluorocyclobutyl)acetamido)-2-methoxyethyl)imidazo[1,2-b]pyridazin-2-yl)(4,4-difluorocyclohexyl)methyl)-1-(ethyl-d5)-1H-pyrazole-5-carboxamide]	3600 nM	2200 nM	
[2H]C([2H])([2H])C([2H])([2H])n1nccc1C(=O)N[C@H](c1cn2ncc(C(COC)NC(=O)CC3CC(F)(F)C3)cc2n1)C1CCC(F)(F)CC1 (single isomer, unassigned) [Example 523, N—((S)-(7-((R*)-1-(2-(3,3-Difluorocyclobutyl)acetamido)-2-methoxyethyl)imidazo[1,2-b]pyridazin-2-yl)(4,4-difluorocyclohexyl)methyl)-1-(ethyl-d5)-1H-pyrazole-5-carboxamide]	110 nM	270 nM	
COCC(NC(=O)CC1CC(F)(F)C1)c1cnn2cc([C@@H](NC(=O)c3nonc3C3CC3)C3CCC(F)(F)CC3)nc2c1 (single isomer, unassigned) [Example 524, 4-Cyclopropyl-N—((S)-(7-((S*)-1-(2-(3,3-difluorocyclobutyl)acetamido)-2-methoxyethyl)imidazo[1,2-b]pyridazin-2-yl)(4,4-difluorocyclohexyl)methyl)-1,2,5-oxadiazole-3-carboxamide]	3700 nM	380 nM	
COCC(NC(=O)CC1CC(F)(F)C1)c1cnn2cc([C@@H](NC(=O)c3nonc3C3CC3)C3CCC(F)(F)CC3)nc2c1 (single isomer, unassigned) [Example 525, 4-Cyclopropyl-N—((S)-(7-((R*)-1-(2-(3,3-difluorocyclobutyl)acetamido)-2-methoxyethyl)imidazo[1,2-b]pyridazin-2-yl)(4,4-difluorocyclohexyl)methyl)-1,2,5-oxadiazole-3-carboxamide]	42 nM	59 nM	
CCOCC(NC(=O)CC1CC(F)(F)C1)c1cnn2cc([C@@H](NC(=O)c3nonc3C3CC3)C3CCC(F)(F)CC3)nc2c1 (single isomer, unassigned) [Example 526, 4-Cyclopropyl-N—((S)-(7-((S*)-1-(2-(3,3-difluorocyclobutyl)acetamido)-2-ethoxyethyl)imidazo[1,2-b]pyridazin-2-yl)(4,4-difluorocyclohexyl)methyl)-1,2,5-oxadiazole-3-carboxamide]	1200 nM	320 nM	
CCOCC(NC(=O)CC1CC(F)(F)C1)c1cnn2cc([C@@H](NC(=O)c3nonc3C3CC3)C3CCC(F)(F)CC3)nc2c1 (single isomer, unassigned) [Example 527, 4-Cyclopropyl-N—((S)-(7-((R*)-1-(2-(3,3-difluorocyclobutyl)acetamido)-2-ethoxyethyl)imidazo[1,2-b]pyridazin-2-yl)(4,4-difluorocyclohexyl)methyl)-1,2,5-oxadiazole-3-carboxamide]	110 nM	57 nM	
CCOCC(NC(=O)CC1CC(F)(F)C1)c1cnn2cc([C@@H](NC(=O)c3ccnn3C(C)C)C3CCC(F)(F)CC3)nc2c1 (single isomer, unassigned) [Example 528, N—((S)-(7-((R*)-1-(2-(3,3-Difluorocyclobutyl)acetamido)-2-ethoxyethyl)imidazo[1,2-b]pyridazin-2-yl)(4,4-difluorocyclohexyl)methyl)-1-isopropyl-1H-pyrazole-5-carboxamide]	2400 nM	900 nM	
CCOCC(NC(=O)CC1CC(F)(F)C1)c1cnn2cc([C@@H](NC(=O)c3ccnn3C(C)C)C3CCC(F)(F)CC3)nc2c1 (single isomer, unassigned) [Example 529, N—((S)-(7-((S*)-1-(2-(3,3-Difluorocyclobutyl)acetamido)-2-ethoxyethyl)imidazo[1,2-b]pyridazin-2-yl)(4,4-difluorocyclohexyl)methyl)-1-isopropyl-1H-pyrazole-5-carboxamide]	120 nM	340 nM	
[2H]C([2H])([2H])C([2H])([2H])n1nccc1C(=O)N[C@H](c1cn2ncc(C(COCC)NC(=O)CC3CC(F)(F)C3)cc2n1)C1CCC(F)(F)CC1 (single isomer, unassigned) [Example 530, N—((S)-(7-((R*)-1-(2-(3,3-Difluorocyclobutyl)acetamido)-2-ethoxyethyl)imidazo[1,2-b]pyridazin-2-yl)(4,4-difluorocyclohexyl)methyl)-1-(ethyl-d5)-1H-pyrazole-5-carboxamide]	4600 nM	980 nM	
[2H]C([2H])([2H])C([2H])([2H])n1nccc1C(=O)N[C@H](c1cn2ncc(C(COCC)NC(=O)CC3CC(F)(F)C3)cc2n1)C1CCC(F)(F)CC1 (single isomer, unassigned) [Example 531, N—((S)-(7-((S*)-1-(2-(3,3-Difluorocyclobutyl)acetamido)-2-ethoxyethyl)imidazo[1,2-b]pyridazin-2-yl)(4,4-difluorocyclohexyl)methyl)-1-(ethyl-d5)-1H-pyrazole-5-carboxamide]	110 nM	220 nM	
CC(C)n1nccc1C(=O)N[C@H](c1cn2ncc(C(CO)NC(=O)CC3CC(F)(F)C3)cc2n1)C1CCC(F)(F)CC1 (single isomer, unassigned) [Example 532, N—((S)-(7-((R*)-1-(2-(3,3-Difluorocyclobutyl)acetamido)-2-hydroxyethyl)imidazo[1,2-b]pyridazin-2-yl)(4,4-difluorocyclohexyl)methyl)-1-isopropyl-1H-pyrazole-5-carboxamide]	2800 nM	1500 nM	
CC(C)n1nccc1C(=O)N[C@H](c1cn2ncc(C(CO)NC(=O)CC3CC(F)(F)C3)cc2n1)C1CCC(F)(F)CC1 (single isomer, unassigned) [Example 533, N—((S)-(7-((S*)-1-(2-(3,3-Difluorocyclobutyl)acetamido)-2-hydroxyethyl)imidazo[1,2-b]pyridazin-2-yl)(4,4-difluorocyclohexyl)methyl)-1-isopropyl-1H-pyrazole-5-carboxamide]	150 nM	480 nM	
Cc1nonc1C(=O)N[C@H](c1cn2ncc(C(NC(=O)CC3CC(F)(F)C3)C3CCOCC3)cc2n1)C1CCC(F)(F)CC1 (single isomer, unassigned) [Example 534, N—((S)-(7-((R*)-1-(2-(3,3-Difluorocyclobutyl)acetamido)(tetrahydro-2H-pyran-4-yl)methyl)imidazo[1,2-b]pyridazin-2-yl)(4,4-difluorocyclohexyl)methyl)-4-methyl-1,2,5-oxadiazole-3-carboxamide]		96 nM	70 nM
CC(C)n1nccc1C(=O)N[C@H](c1cn2ncc(C(NC(=O)CC3CC(F)(F)C3)C3CCOCC3)cc2n1)C1CCC(F)(F)CC1 (single isomer, unassigned) [Example 535, N—((S)-(7-((R*)-1-(2-(3,3-Difluorocyclobutyl)acetamido)(tetrahydro-2H-pyran-4-yl)methyl)imidazo[1,2-b]pyridazin-2-yl)(4,4-difluorocyclohexyl)methyl)-1-isopropyl-1H-pyrazole-5-carboxamide]		440 nM	89 nM
COCC(NC(=O)CC1CC(F)(F)C1)c1cnn2cc([C@H](COC(C)(C)C(F)(F)F)NC(=O)c3nonc3C3CC3)nc2c1 (single isomer, unassigned) [Example 538, 4-Cyclopropyl-N—((R)-1-(7-((S*)-1-(2-(3,3-difluorocyclobutyl)acetamido)-2-methoxyethyl)imidazo[1,2-b]pyridazin-2-yl)-2-((1,1,1-trifluoro-2-methylpropan-2-yl)oxy)ethyl)-1,2,5-oxadiazole-3-carboxamide]		24 nM	80 nM
COCC(NC(=O)CC1CC(F)(F)C1)c1cnn2cc([C@H](COC(C)(C)C(F)(F)F)NC(=O)c3ccnn3C(C)C)nc2c1 (single isomer, unassigned) [Example 539, N—((R)-1-(7-((S*)-1-(2-(3,3-Difluorocyclobutyl)acetamido)-2-methoxyethyl)imidazo[1,2-b]pyridazin-2-yl)-2-((1,1,1-trifluoro-2-methylpropan-2-yl)oxy)ethyl)-1-isopropyl-1H-pyrazole-5-carboxamide]		130 nM	78 nM
Cc1nonc1C(=O)N[C@H](c1cn2ncc(C(NC(=O)CCC(F)(F)F)C(C)C)cc2n1)C1CCC(F)(F)CC1 (single isomer, unassigned) [Example 546, N—((S)-(4,4-Difluorocyclohexyl)(7-((R*)-2-methyl-1-(4,4,4-trifluorobutanamido)propyl)imidazo[1,2-b]pyridazin-2-yl)methyl)-4-methyl-1,2,5-oxadiazole-3-carboxamide]	> 20000 nM	640 nM	
O=C(CCC(F)(F)F)NC(c1cnn2cc([C@@H](NC(=O)c3cnn(CC4CC4)n3)C3CCC(F)(F)CC3)nc2c1)C1CC1 (stereo in doubt) [Example 25, N—((S)-(7-((R*)-Cyclopropyl(4,4,4-trifluorobutanamido)methyl)imidazo[1,2-b]pyridazin-2-yl)(4,4-difluorocyclohexyl)methyl)-2-(cyclopropylmethyl)-2H-1,2,3-triazole-4-carboxamide]		71 nM	350 nM
